This is an account of results in the Deep4Chem optical property database.

The structures appear in SMILES notation. Where “and” joins values, the source holds several entries; their conditions need not be identical. Equal values may be shown once.

This series can be described thus: solvent given as SMILES.

As to `CCC(=O)c1ccc2cc(N(C)C)ccc2c1`, the absorption maximum is 342 nm and 343 nm (in C1CCCCC1); 346 nm (in C1CCOC1); 348 nm (in C1COCCO1); 347 nm and 368 nm (in CC#N); 350 nm (in CC(C)=O); 367 nm (in CC(C)O). The absorption maximum was 367 nm (in CCC(C)=O); 338 nm (in CCCCCC); 343 nm (in CCCCCCC); 360 nm (in CCCCCCCCO); 343 nm (in CCN(CC)CC); 362 nm and 369 nm (in CCO). Further, the absorption maximum (in CCOC(C)=O) was found to be 352 nm; the absorption maximum (in CN(C)C=O) amounted to 350 nm; the absorption maximum (in CO) worked out at 362 nm; the absorption maximum (in CS(C)=O) was 359 nm and 369 nm; the absorption maximum (in Cc1ccccc1) is 345 nm and 349 nm; the absorption maximum (in ClC(Cl)Cl) came to 358 nm. Moreover, the absorption maximum is 355 nm and 358 nm (in ClCCl); 254 nm and 354 nm (in Clc1ccccc1); 364 nm (in O); 370 nm (in OCC(O)CO); 375 nm (in OCCO); 355 nm (in c1ccccc1).

Take `COc1nc(Cl)nc(Nc2ccc3c4c(cccc24)C(=O)c2ccccc2-3)n1`: the absorption maximum is 407 nm (in CC#N); 410 nm (in CC(C)=O); 417.01 nm (in CC(C)O); 411.02 nm (in CCOC(C)=O); 414.94 nm (in CO); 419.99 nm (in Cc1ccccc1). Also, the absorption maximum is, setting by setting: (in Clc1ccccc1) 418.06 nm; (in N#Cc1ccccc1) 415.97 nm; (in O=C1CCCCC1) 414.94 nm.

As to `CC[N+](CC)=c1ccc2c(-c3ccccc3C(=O)O)c3c(=O)oc4cc5c(cc4c3oc-2c1)CCCN5C`, the absorption maximum is, setting by setting: (in CCO) 598 nm; (in ClC(Cl)Cl) 610 nm; (in O) 601 nm.

`CC1=CC(C)=[N+]2C1=C(C1=C3C(C)=CC(C)=[N+]3[B-](F)(F)n3c(C)cc(C)c31)c1c(C)cc(C)n1[B-]2(F)F` displayed an absorption maximum (in ClC(Cl)Cl) of 515 nm.

For the setting “in CO”, `CCN(C)c1ccc(C2=C3C(C)=CC(/C=C/c4ccc(OCC(=O)OC)cc4)=[N+]3[B-](F)(F)n3c(C)cc(C)c32)cc1` registered an absorption maximum of 567 nm.

`CCc1c(C(=O)OC)c(C(=O)OC)c2ccc(-c3ccccc3)nn12` gave an absorption maximum (in C1CCCCC1) of 399.4 nm.

In turn, `COc1ccc(/C=C/c2cc(/C=C/c3ccc(OC)cc3)nc(/C=C/c3ccc(C(F)(F)F)cc3)n2)cc1` showed an absorption maximum (in ClCCl) of 370 nm.

For `c1ccc(-c2nc(-c3nc(-c4ccccc4)c(-c4ccccc4)o3)oc2-c2ccccc2)cc1`, where the note is “in C1COCCO1”, the absorption maximum was 343 nm.

Turning to `CC1(C)CC(NCc2ccc3ccc4cccc5ccc2c3c45)CC(C)(C)N1`, the absorption maximum is, setting by setting: (in C1CCCCC1) 374 nm; (in CC#N) 374 nm; (in CO) 374 nm; (in ClC(Cl)Cl) 389 nm.

Consider `c1ccc2c(c1)Cc1ccccc1N2c1c2ccccc2c(N2c3ccccc3Cc3ccccc32)c2ccccc12`, for which the absorption maximum (in Cc1ccccc1) was 440 nm.

Take `N#C/C(=C\c1ccc(Cl)cc1)c1nc2ccccc2s1`: the absorption maximum is, setting by setting: (in C1CCCCC1) 350 nm; (in CO) 350 nm.

For `COc1ccc(-c2ccc3c(c2)[Si](C)(C)c2cc(-c4ccc(OC)cc4)ccc2C=C3)cc1`, the absorption maximum (in ClCCl) came to 385 nm.

The compound `CCCCN(CCCC)c1ccc(C#Cc2cc(C#Cc3ccc([N+](=O)[O-])cc3)c(C#Cc3ccc([N+](=O)[O-])cc3)cc2C#Cc2ccc(N(CCCC)CCCC)cc2)cc1` gave an absorption maximum (in ClCCl) of 417 nm.

In turn, `CCCCCCCCCCc1cc(-c2cc(CCCCCCCCCC)c(-c3cccs3)s2)sc1-c1cccs1` showed an absorption maximum (in CCCCCCCCCCCCCC) of 380 nm.

The compound `F[B-]1(F)OC(c2ccc(C(F)(F)F)cc2)=Cc2c3ccccc3c3ccccc3[n+]21` returned an absorption maximum (in ClC(Cl)Cl) of 430 nm.

Under “in CS(C)=O”, `c1ccc2[nH]c(-c3cc(-c4nc5ccccc5[nH]4)cc(-c4nc5ccccc5[nH]4)c3)nc2c1` returned an absorption maximum of 316 nm.

With `COc1cccc(C2=c3c(c4ccc(C(C)(C)C)cc4c4cc(C(C)(C)C)ccc34)=[N+]3C2=C(c2ccccc2)c2c(-c4cccc(OC)c4)c4c5ccc(C(C)(C)C)cc5c5cc(C(C)(C)C)ccc5c4n2[B-]3(F)F)c1`, the absorption maximum came out at 680 nm (in C1CCCCC1); 677 nm (in C1CCOC1); 670 nm (in CC#N); 682 nm (in Cc1ccccc1); 677 nm (in ClCCl).

`CC[N+]1(CC)CN2C(=N1)C(C(=O)O)=Cc1cc(SC)ccc12` registered an absorption maximum (in O) of 397 nm.

For `C[P+]1(c2ccccc2)C2=C(c3ccccc31)S(=O)(=O)c1ccccc12` (stereo not given), the absorption maximum (in CC#N) came out at 388 nm, the absorption maximum (in CCO) was 319 nm and the absorption maximum (in ClCCl) worked out at 395 nm.

In the case of `O=c1oc2ccccc2cc1-c1nc2ccccc2o1`, the absorption maximum runs as follows: (in C1CCOC1) 354 nm; (in C1COCCO1) 357 nm; (in CC1CCCCC1) 356 nm; (in CC#N) 352 nm; (in CC(C)=O) 352 nm; (in CC(C)CO) 353 nm. The absorption maximum (in CC(C)O) is given as 354 nm; the absorption maximum (in CCOC(C)=O) was 352 nm; the absorption maximum (in CN(C)C=O) was 352 nm; the absorption maximum (in CO) is listed as 352 nm; the absorption maximum (in CS(C)=O) was 354 nm; the absorption maximum (in Cc1ccccc1) is 360 nm. Further, the absorption maximum reads like this: (in ClC(Cl)(Cl)Cl) 360 nm; (in ClC(Cl)Cl) 356 nm; (in OCCO) 354 nm.

On to `CC(C)(C)c1cc(-c2ccc(-c3cccs3)s2)c2c(c1)c1cc(C(C)(C)C)cc(-c3ccc(-c4cccs4)s3)c1n2-c1ccc(-c2cccs2)s1`, for which the absorption maximum (in ClCCl) is recorded as 340 nm.

Compound `O=P1(c2ccccc2)C(c2ccsc2)=C(c2ccsc2)c2ccccc21` (stereo not given) displayed an absorption maximum (in C1CCOC1) of 355 nm.

As for `CC(C)(C)c1ccc(C#Cc2cc3ccc4cc(C#Cc5ccc(C(C)(C)C)cc5)cc5ccc(c2)c3c45)cc1`, the absorption maximum (in ClCCl) is listed as 410 nm.

With `F[B-]1(F)OC(/C=C/c2ccccc2)=CC(c2ccccc2)=[O+]1`, the absorption maximum (in ClCCl) is 398 nm.

`Cc1cc2nc3c(=O)n(C)c(=O)nc-3n(C)c2cc1C` gave an absorption maximum (in CC#N) of 444 nm.

In turn, `Cc1ccc(C2=Nc3cccc4[n+]3[B-](F)(O2)OC(c2ccc(C)cc2)=N4)cc1` gave an absorption maximum (in ClCCl) of 394 nm.

`N#Cc1cnc(-c2c3ccccc3c(-c3ncc(C#N)cn3)c3ccccc23)nc1`: the absorption maximum is, setting by setting: (in CCO) 391 nm; (in ClCCl) 394 nm.

As to `COc1ccc2c(c1)-c1cc(OC)ccc1C2=O`, the absorption maximum by setting is: (in C1CCCCC1) 361 nm; (in CC#N) 376 nm; (in CCO) 382 nm.

For `N#C/C(=C\c1cn(-c2ccccc2)nc1-c1ccccc1)c1nc2ccccc2s1`, the absorption maximum is, setting by setting: (in C1CCOC1) 381 nm; (in C1COCCO1) 381 nm; (in CCO) 380 nm; (in CCOC(C)=O) 380 nm; (in CN(C)C=O) 388 nm; (in CO) 377 nm. The same compound yielded an absorption maximum (in CS(C)=O) of 382 nm, an absorption maximum (in Cc1ccccc1) of 387 nm, an absorption maximum (in ClC(Cl)Cl) of 383 nm and an absorption maximum (in ClCCl) of 380 nm.

In the case of `CCCCCCN(c1ccccc1)c1ccc(/C=C/c2cc(=O)oc3cc(C)ccc23)cc1`, the absorption maximum stood at 432 nm (in CS(C)=O) and 424 nm (in ClC(Cl)Cl).

In the case of `CCC1=C(C)C2=C(c3cc(C4=C5C(C)=C(CC)C(C)=[N+]5[B-](F)(F)n5c(C)c(CC)c(C)c54)cc(C4=C5C(C)=C(CC)C(C)=[N+]5[B-](F)(F)n5c(C)c(CC)c(C)c54)c3)c3c(C)c(CC)c(C)n3[B-](F)(F)[N+]2=C1C`, the absorption maximum is 534 nm (in C1CCOC1); 531 nm (in CC#N); 539 nm (in CN(C)C=O); 537 nm (in Cc1ccccc1); 538 nm (in ClC(Cl)Cl).

Where the note is “in C1CCOC1”, `COc1cc2c(cc1-c1ccc(C(F)(F)F)cc1)Cc1c3c(c4c(c1-2)-c1cc(OC)c(-c2ccc(C(F)(F)F)cc2)cc1C4)C(=O)N(CCC(C)C)C3=O` showed an absorption maximum of 404 nm.

With `O=C1C=C(Nc2ccccc2)CCC1`, the absorption maximum stood at 295 nm (in C1CCCCC1); 302 nm (in C1CCOC1); 302 nm (in C1COCCO1); 295 nm (in CC1CCCCC1); 307 nm (in CC#N); 307 nm (in CC(C)O). In addition, the absorption maximum reads like this: (in CCO) 307 nm; (in CCOC(C)=O) 301 nm; (in CCOCC) 296 nm; (in CN(C)C=O) 306 nm; (in CO) 305 nm; (in CS(C)=O) 307 nm. The absorption maximum is, setting by setting: (in ClC(Cl)(Cl)Cl) 299 nm; (in ClC(Cl)Cl) 303 nm; (in O) 306 nm.

`CC(C)(C)c1ccc2c(c1)c1cc(C(C)(C)C)ccc1n2-c1cccc(-n2c3ccc(C(C)(C)C)cc3c3cc(C(C)(C)C)ccc32)c1C#N` returned an absorption maximum (in Cc1ccccc1) of 367 nm.

`c1ccc(-c2cc3cc4cccc5c(-c6ccccc6)cc6cc7cccc2c7c3c6c45)cc1`: the absorption maximum (in ClCCl) came to 439 nm.

Regarding `C1=C(c2ccc(-c3cccs3)s2)CCCC1`, the absorption maximum is, setting by setting: (in C1CCOC1) 341 nm; (in CC#N) 342 nm; (in CCCCCC) 341 nm; (in CCO) 344 nm; (in OCCOCCO) 345 nm; (in c1ccncc1) 345 nm.

Consider `Fc1cccc(C2=Cc3ccc4ccccc4[n+]3[B-](F)(F)O2)c1`, for which the absorption maximum (in ClC(Cl)Cl) came out at 425 nm.
